Type in all cases: functional
Experiment [1] concerns Pectinophora gossypiella. Briefly: Antifeedant activity against Pectinophora gossypiella second-instar larvae assessed as 50 % protection after 48 hrs.
The test system of experiment [2] is Spodoptera frugiperda. Briefly: Antifeedant activity against Spodoptera frugiperda second-instar larvae assessed as 50 % protection after 48 hrs.
In experiment [3] the test system is Spodoptera frugiperda. In words: Antifeedant activity against Spodoptera frugiperda second-instar larvae assessed as 90 % protection after 48 hrs.
For experiment [4], the system named is Pectinophora gossypiella. Briefly: Antifeedant activity against Pectinophora gossypiella second-instar larvae assessed as 90 % protection after 48 hrs.

`CC(=O)O[C@H]1[C@H](OC(C)=O)[C@]2(C)C(=CC[C@H]2c2ccoc2)[C@]2(C)C(=O)C[C@H]3C(C)(C)O[C@H]4C[C@H](O)C(=O)[C@]43[C@@H]12` [ZUMKETOL]: the Activity turned out to be 0.5 µg/mL in the experiment on Pectinophora gossypiella [1], 3 µg/mL in the experiment on Spodoptera frugiperda [2], 16 µg/mL in the experiment on Spodoptera frugiperda [3] and 2 µg/mL in the experiment with Pectinophora gossypiella [4].

(Values after ChEMBL document CHEMBL1142584, “Insect antifeedants from Croton jatrophoides: structures of zumketol, zumsenin, and zumsenol” (2005).)
